{"source": "patent US9505735B2", "about": "“Compounds for treating infectious diseases” (Whitehead Institute for Biomedical Research, priority 2012, dated 2016)", "key": {"Gwt1": {"target": "T1, Gwt1 (Saccharomyces cerevisiae, UniProt P47026)", "T1 construct": "Wildtype S. cerevisiae BY4741; endogenous in cells; host or cells: S. cerevisiae BY4741 (wild type)", "T1 sequence (P47026 1-490)": "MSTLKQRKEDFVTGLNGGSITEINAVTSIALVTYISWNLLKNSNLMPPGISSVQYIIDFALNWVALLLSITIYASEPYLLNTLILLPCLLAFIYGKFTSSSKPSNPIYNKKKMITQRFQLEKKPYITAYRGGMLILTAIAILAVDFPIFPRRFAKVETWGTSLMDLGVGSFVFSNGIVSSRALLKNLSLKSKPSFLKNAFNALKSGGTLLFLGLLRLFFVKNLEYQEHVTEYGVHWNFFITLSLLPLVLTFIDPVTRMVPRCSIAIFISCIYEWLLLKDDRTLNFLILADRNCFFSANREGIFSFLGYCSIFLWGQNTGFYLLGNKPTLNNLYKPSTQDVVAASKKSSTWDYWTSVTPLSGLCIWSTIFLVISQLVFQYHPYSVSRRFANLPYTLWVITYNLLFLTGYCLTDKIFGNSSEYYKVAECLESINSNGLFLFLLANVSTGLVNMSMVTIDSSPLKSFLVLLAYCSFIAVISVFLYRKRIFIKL", "assay": "Antifungal susceptibility testing, screening strains with plasmid-borne GWT1 (low or high copy)", "format": "cell-based, S. cerevisiae", "method": "Sensitivity to gepinacin was determined in 96-well, flat bottom microtiter plates using a modification of the NCCLS broth microdilution protocol CLS M27-A3 and RPMI as culture medium. Fungi were inoculated at ˜10^3 cells per ml and incubated for 48 hours at 37° C. after which plates were sealed, shaken and the optical density read at 600 nm (OD600) on a Tecan Safire 2 plate reader. All samples were run in duplicate or triplicate and assays were repeated at least once. Results are expressed as fraction of growth in the absence of compound and the mean and standard deviation are plotted. For the mold A. terreus, inoculum was 10^4 cells per ml and plates were incubated at 35° C. for 48 hours in the dark. Plates were then visually scored as specified by CLSI document M38-A2 to determine the MIC50 and MIC80.\nBecause GWT1 deletion is lethal in S. cerevisiae strain BY4741, a haploid shuttle strain was constructed in which the genomic copy of GWT1 was deleted and replaced by GWT1 on a plasmid that also encoded the URA3 gene and a G418-resistance gene. To construct this shuttle strain a gwt1Δ/GWT1 heterozygous deletion mutant was transformed with pAGGPD416-GWT1, sporulated and dissected. A colony was selected that grew on both SD-URA and G418-containing plates. PCR with the deletion specific primers (http://wwwsequence.stanford.edu/group/yeast_deletion_project/deletions3.html) was performed to confirm the GWT1 deletion. To change the source of GWT, this shuttle strain was transformed with plasmids containing GWT1 (as a control) or PIG-W and the LEU2 auxotrophy gene followed by selection for growth on SD-LEU plates. Plasmids were constructed by conventional Gateway technology using a GWT1 encoding entry vector and either pAG415GPDccdB or pAG425GPDccdB as the destination vectors. Positive colonies were selected and grown on 5-fluoroorotic acid (5-FOA)-containing plates to promote loss of the pAGGPD416-GWT1 plasmid. The colonies from this plate were then tested for return of uridine auxotrophy to confirm pAGGPD416-GWT1 loss. The PIG-W expression vector was constructed by recombination in yeast as follows. The pAG415GPDccdB vector was cut with Xho1 and Xba1 and the larger piece was gel and column purified. The coding sequence of PIG-W was PCR amplified from the entry clone so that it would have ends facilitating recombination with the cut vector. The shuttle strain was then transformed with these two DNA fragments and plated on SD-LEU plates to select for recombinants. PIG-W plasmid was isolated from the final strain and sequence verified.\nThe following gepinacin analogs were tested for activity against Gwt1. Gepinacin, M3, CM2, CM4, CM6, CM7, CM8, and 857621-56-8 were available commercially. The compounds were tested using the “Antifungal Susceptibility Testing” protocol described above. Fungi tested are described in the “Fungal Strains” section above.\nAn S. cerevesiae strain was generated in which the endogenous Gwt1 gene was deleted. Plasmids (either high copy or low copy) with either S. cerevesiae or human Gwt1 were introduced to produce strains bearing such plasmids expressing either S. cerevesiae or human Gwt1 from a constitutive promoter. Yeast strains were cultured in liquid media in the presence of indicated compounds. Shown in FIGS. 22A-D show the effect of the indicated compounds on growth (assessed by OD600) and viability (assessed using Bactiter Glo) of the yeast strain with high copy or low copy plasmid containing S. cerevesiae Gwt1. The compounds had no effect on strains with the human Gwt1, thus showing the compounds' sensitivity for the fungal (yeast) Gwt1 gene."}, "[1]": {"system": "C. albicans Sc5314 cell surface β-glucan", "assay": "β-Glucan staining (microscopy, flow cytometry)", "format": "cell-based", "method": "Overnight treatment and staining of C. albicans strain Sc5314 was performed as previously described for caspofungin treatment using YPD media at 30° C. to maintain growth in the yeast form (Wheeler, et al. (2006) PLoS Pathog 2, e35). Antibody to (1-3) β-D-glucan was obtained from Biosupplies (Australia). Cells were propidium iodide (PI) stained to assess viability and only PI-negative cells were analyzed. Microscopy was performed on a Nikon Eclipse microscope with a 100× oil objective."}, "[2]": {"system": "amphotericin B-resistant or fluconazole-resistant C. albicans", "assay": "Co-culture of mammalian cells and C. albicans: fungal proliferation", "format": "cell-based", "details": "40 μM, 24 hours, serum-containing medium", "method": "For co-culture experiments, confluent layers of NIH 3T3 cells were established in 6-well plates. The following day, the medium was replaced with RPMI1640+10% FBS containing the amphotericin-resistant strain CaAmphR at […] colony forming units per ml and 40 μM gepinacin or an equivalent amount of DMSO. Co-cultures were incubated for 24 hours at 37° C. in a micro-isolator box. Images were acquired on a Nikon Eclipse TS100 microscope at 40×.\nHaving determined the target of gepinacin in fungi, gepinacin's effect on the human ortholog of Gwt1, PIG-W, was examined. To determine if gepinacin remained active under mammalian cell culture conditions cultured fungi were cultured (either an amphotericin B-resistant (FIG. 3a) or fluconazole-resistant (data not shown) isolate of C. albicans) and mammalian cells together with 40 μM gepinacin. […] PIG-W (and GPI anchor biosynthesis) is not essential for mammalian cells in culture."}, "[3]": {"system": "unfolded protein response", "assay": "Unfolded protein response GFP reporter (UPRE-GFP), flow cytometry", "format": "cell-based, S. cerevisiae", "details": "5 hours", "method": "Induction of the unfolded protein response in cells carrying a GFP reporter construct was monitored by flow cytometry after exposure to serial dilutions of the indicated compounds for 5 hrs.\nThe plasmid pRS304-4XUPRE-GFP was linearized and integrated into the TRP1 locus of S. cerevisiae (W303) to construct a reporter strain as previously described (Cox, et al. (1993) Cell 73, 1197-1206; Pollard, et al. (1998) Mol Cell 1, 171-182). Reporter cells were grown to log phase and exposed to compound at 23° C. for 5 hours before analysis. GFP reporter induction was monitored on a Guava EasyCyte Plus cytometer. The average mean channel fluorescence of duplicate samples was determined, and the experiment was performed twice with similar results."}}, "data": [{"smiles": "COc1ccc(NC(=O)COc2cccc(OCC(C)C)c2)cc1", "note": "[gepinacin]", "values": [{"measurement": "cell growth of the strain expressing the yeast gene (GWT1)", "setting": "Gwt1", "value": "potently inhibited"}, {"measurement": "increase in median channel fluorescence (β-glucan, flow cytometry) versus control", "setting": "[1]", "value": 4.5, "unit": "fold"}, {"measurement": "β-glucan presentation on the cell surface (immunostaining)", "setting": "[1]; sub-lethal concentrations (5 μM)", "value": "dramatically increase"}, {"measurement": "fungal proliferation in co-culture", "setting": "[2]", "value": "profound inhibition of proliferation"}, {"measurement": "activation of the unfolded protein response (GFP reporter)", "setting": "[3]", "value": "massive, concentration-dependent activation"}]}]}
